Several values for one entry are separate records, joined by “and”; a condition that tells them apart may be missing. Equal values may be shown once. Read-outs that look alike come from different tables or passages of the source.
Legend:
[1] = biological target: T1, delta opioid receptor (CHO-hδ cell membranes) (Homo sapiens, UniProt P41143); assay: Delta Opioid Receptor Functional Assay: [35S]GTPγS Binding in CHO-hδ Cell Membranes, Version 1; assay type: biochemical; conditions: read-out: DOR GTP-binding Assay_v1 EC50
T1 construct: purchased Receptor Biology, Inc. (Baltimore, Md.); host or cells: CHO cells (recombinant expression)
Experimental: CHO-hδ cell membranes were purchased from Receptor Biology, Inc. (Baltimore, Md.). 10 mg/ml of membrane protein suspended in 10 mM TRIS-HC pH 7.2, 2 mM EDTA, 10% sucrose.
Membranes were maintained at 4-8° C. A portion (1 ml) of membranes was added into 15 mL cold binding assay buffer. The assay buffer contained 50 mM HEPES, pH 7.6, 5 mM MgCl2, 100 mM NaCl, 1 mM DTT and 1 mM EDTA. The membrane suspension was homogenized with a Polytron for 2 times and centrifuged at 3000 rpm for 10 min. The supernent was then centrifuged at 18,000 rpm for 20 min. The pellet was saved in a tube and 10 ml assay buffer was added into the tube. The pellet and buffer were mixed with a Polytron.
The pellet membranes (20 μg/ml) were preincubated with SPA (10 mg/ml) at 25° C. for 45 min in the assay buffer. The SPA (5 mg/ml) coupled with membranes (10 μg/ml) was then incubated with 0.5 nM [^35S]GTPγS in the same HEPES buffer containing 50 μM GDP in total volume of 200 μl. Increasing concentrations of receptor agonists were used to stimulate [^35S]GTPγS binding. The basal binding was tested in the absent agonists and no specific binding was tested in the present 10 μM unlabeled GTPγS. The data were analyzed on a Top counter.
Data The % of Basal=(stimulate−non specific)*100/(basal−non specific). EC50 values were calculated using a Prism program.

[2] = test system: novel environment-stressed mice; assay: In Vivo Assay-Stress-Induced Fecal Output (Fecal Output for 1 hr); parameters: species or system mouse; conditions: for Fecal Output (# pellets) cpd: novel environment-stressed mice; for Fecal Output (# pellets) cpd / response vs control in vivo at 30 mg/kg / response vs control in vivo at 10 mg/kg: 1 hr; for response vs control in vivo at 30 mg/kg / response vs control in vivo at 10 mg/kg: Mus musculus, po, 1 h; for # of pellets, Compound (m) 3.0 / Fecal pellet output, Compound (% control) 3.0 / Fecal pellet output, Compound (% NES) 3.0: dose 3.0, oral; for # of pellets, Compound (m) 10.0 / Fecal pellet output, Compound (% control) 10.0 / Fecal pellet output, Compound (% NES) 10.0: dose 10.0, oral; for # of pellets, Compound (m) 30.0 / Fecal pellet output, Compound (% control) 30.0: dose 30.0, oral; for Fecal pellet output, Compound (% NES) 30: dose 30, oral
In short: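 Adult male Crl:CD-1(ICR) mice (˜30-35 g; at least 10 per dose group) were split into acclimated non-stressed controls, held individually for 16-18 hr in wire-mesh-bottom cages, and non-acclimated stressed groups. Mice were dosed intragastrically with vehicle or test compound in 0.5% methylcellulose, housed individually in novel cages over absorbent cardboard, and fecal pellets per mouse were counted hourly.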

male CD-1 mice = assay: In Vivo Assay: Upper GI Tract Transit (MUGIT); conditions: Mus musculus, po, 1 h, dose 30 (mg), p.o., read-out: upper GI transit (% ctrl)
Experimental: Methods: The animals used in these studies were male CD-1 mice, ave. wt. ˜30 g. Mice were housed under 12 h/12 h light/dark cycle, food & water ad lib. On the day of the experiment mice were assigned to experimental groups, including one vehicle-only group (=control). At 30 min before administration of carmine dye, animals were dosed with vehicle or vehicle-plus-compound, mice were returned to their home cages after drug administration. After administration of carmine, the animals were either returned to their home cages (non-stressed) or individually placed in the same metal cages as used in the fecal output or entire GI tract transit to induce a novel environment stress. One hour after administration of carmine, mice were sacrificed by cervical dislocation, the abdomen opened midventrally, the small intestine from pylorus to cecum was removed, the mesentery divided in order to lay the intestine straight & flat—without stretching. The total length of intestine and the length of carmine-dyed intestine were measured in order to determine the percent of the upper GI tract over which transit had occurred as follows: {(Length of carmine-dyed intestine)/(Total length of intestine)}×100=% upper GI transit. The data expressed were group means±SD (or s.e.m.) and data expressed as % of control.

[3] = 30 mg/kg oral, relative to acclimated control, read-out: Fecal Output cpd % control
[4] = 30 mg/kg oral, relative to novel environment stress (NES) vehicle group, read-out: Fecal Output cpd % NES
[5] = NES mice, vs acclimated control
[6] = 10 mg/kg oral, relative to novel environment stress (NES) vehicle group, read-out: Fecal Output cpd % NES

T1 sequence (P41143 whole entry): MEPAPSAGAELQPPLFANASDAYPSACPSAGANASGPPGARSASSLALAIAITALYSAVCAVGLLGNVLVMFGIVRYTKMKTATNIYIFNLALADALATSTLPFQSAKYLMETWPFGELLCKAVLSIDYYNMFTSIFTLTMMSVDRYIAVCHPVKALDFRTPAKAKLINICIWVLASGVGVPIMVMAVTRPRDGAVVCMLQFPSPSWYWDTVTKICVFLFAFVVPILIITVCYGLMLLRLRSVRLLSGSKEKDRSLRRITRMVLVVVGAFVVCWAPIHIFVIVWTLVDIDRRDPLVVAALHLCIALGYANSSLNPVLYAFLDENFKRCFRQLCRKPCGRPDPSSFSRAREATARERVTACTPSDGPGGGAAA

## Cc1cc(C(N)=O)cc(C)c1C[C@H](N)C(=O)N(Cc1ccccc1)[C@@H](C)c1nc(-c2ccccc2)c[nH]1 [Cpd 114]
[1]
  EC50: 35 nM
[2]; 30 mg/kg oral
  Fecal Output (# pellets) cpd: 7.8 pellets
[2]; [3]
  response vs control in vivo at 30 mg/kg: 108%
[2]; [4]
  response vs control in vivo at 30 mg/kg: 75.7%
[2]; NES mice, fecal output 1 hr
  # of pellets, Compound (m) 3.0: 9.6
  # of pellets, Compound (m) 10.0: 7.7
  # of pellets, Compound (m) 30.0: 5.4
[2]; [5]
  Fecal pellet output, Compound (% control) 3.0: 282.4 % control
  Fecal pellet output, Compound (% control) 10.0: 226.5 % control
  Fecal pellet output, Compound (% control) 30.0: 159 % control
[2]; vs vehicle NES group
  Fecal pellet output, Compound (% NES) 3.0: 96 % NES
  Fecal pellet output, Compound (% NES) 10.0: 77 % NES
  Fecal pellet output, Compound (% NES) 30: 54 % NES

## Cc1cc(O)cc(C)c1C[C@H](N)C(=O)N(C)[C@@H](C)c1nc(-c2ccccc2)c[nH]1 [Cpd 207]
[1]
  EC50: 8.65 nM and 12 nM
[2]; [4]
  response vs control in vivo at 30 mg/kg: 49.6%
[2]; dose 0.3, oral, NES mice, fecal output 1 hr
  # of pellets, Compound (m) 0.3: 11.4
[2]; dose 0.3, oral, NES mice, vs acclimated control
  Fecal pellet output, Compound (% control) 0.3: 219.2 % control
[2]; dose 0.3, oral, vs vehicle NES group
  Fecal pellet output, Compound (% NES) 0.3: 100 % NES
[2]; dose 0.5, oral, NES mice, fecal output 1 hr
  # of pellets, Compound (m) 0.5: 9.4
[2]; dose 0.5, oral, NES mice, vs acclimated control
  Fecal pellet output, Compound (% control) 0.5: 195.8 % control
[2]; dose 0.5, oral, vs vehicle NES group
  Fecal pellet output, Compound (% NES) 0.5: 109 % NES
[2]; NES mice, fecal output 1 hr
  # of pellets, Compound (m) 3.0: 12 and 7.3
  # of pellets, Compound (m) 10.0: 4.9 and 6.7 and 5.5 and 4.8
  # of pellets, Compound (m) 30.0: 3.5 and 3.4
[2]; [5]
  Fecal pellet output, Compound (% control) 3.0: 228.8 % control and 202.8 % control
  Fecal pellet output, Compound (% control) 10.0: 94.2 % control and 139.6 % control and 161.8 % control and 133.3 % control
  Fecal pellet output, Compound (% control) 30.0: 103 % control and 94 % control
[2]; vs vehicle NES group
  Fecal pellet output, Compound (% NES) 3.0: 104.4 % NES and 112.3 % NES
  Fecal pellet output, Compound (% NES) 10.0: 42.98 % NES and 77.91 % NES and 50.93 % NES and 73.85 % NES
  Fecal pellet output, Compound (% NES) 30: 32.41 % NES and 52.31 % NES
[2]; dose 5.0, oral, NES mice, fecal output 1 hr
  # of pellets, Compound (m) 5.0: 8.6
[2]; dose 5.0, oral, NES mice, vs acclimated control
  Fecal pellet output, Compound (% control) 5.0: 179.2 % control
[2]; dose 5.0, oral, vs vehicle NES group
  Fecal pellet output, Compound (% NES) 5.0: 100 % NES
[2]; dose 6.0, oral, NES mice, fecal output 1 hr
  # of pellets, Compound (m) 6.0: 7.5
[2]; dose 6.0, oral, NES mice, vs acclimated control
  Fecal pellet output, Compound (% control) 6.0: 220.6 % control
[2]; dose 6.0, oral, vs vehicle NES group
  Fecal pellet output, Compound (% NES) 6.0: 69.44 % NES

## COc1ccc(CN(C(=O)[C@@H](N)Cc2c(C)cc(C(N)=O)cc2C)[C@@H](C)c2nc(-c3ccccc3)c[nH]2)cc1-c1nnn[nH]1 [Cpd 8]
Male CD-1 mice
  response vs control in vivo at 30 mg: 77.3%

## C[C@@H](c1nc(-c2ccccc2)c[nH]1)N(Cc1ccccc1)C(=O)[C@@H](N)Cc1ccc(O)cc1 [Cpd 219]
[1]
  EC50: 3560 nM

## Cc1cc(O)cc(C)c1C[C@H](N)C(=O)N(Cc1nc(-c2ccc(F)cc2)c(C)[nH]1)C(C)C [Cpd 163]
[1]
  EC50: 21 nM

## COC(=O)c1cc(CN(C(=O)[C@@H](N)Cc2c(C)cc(C(N)=O)cc2C)[C@@H](C)c2nc(-c3ccccc3)c[nH]2)ccc1OC [Cpd 17]
Male CD-1 mice
  response vs control in vivo at 30 mg: 37.3%

## Cc1ccccc1-c1nc(CN(C(=O)[C@@H](N)Cc2c(C)cc(O)cc2C)C(C)C)[nH]c1C [Cpd 165]
[1]
  EC50: 231 nM

## CCN(C(=O)[C@@H](N)Cc1c(C)cc(O)cc1C)[C@@H](C)c1nc(-c2ccccc2)c[nH]1 [Cpd 216]
[1]
  EC50: 16 nM
[2]; 10 mg/kg oral
  Fecal Output (# pellets) cpd: 4.9 pellets
[2]; 10 mg/kg oral, relative to acclimated control, read-out: Fecal Output cpd % control
  response vs control in vivo at 10 mg/kg: 136%
[2]; [6]
  response vs control in vivo at 10 mg/kg: 47.6%

## Cc1cc(C(N)=O)cc(C)c1C[C@H](N)C(=O)N(Cc1ccc(C(=O)O)cc1)[C@@H](C)c1nc(-c2ccccc2)c[nH]1 [Cpd 50]
[2]; 30 mg/kg oral
  Fecal Output (# pellets) cpd: 3.3 pellets
[2]; [3]
  response vs control in vivo at 30 mg/kg: 144%
[2]; [4]
  response vs control in vivo at 30 mg/kg: 47.1%

## Cc1cc(O)cc(C)c1C[C@H](N)C(=O)N(Cc1ccccc1)[C@@H](C)c1nc(-c2ccccc2)c[nH]1 [Cpd 218]
[1]
  EC50: 20 nM
[2]; 30 mg/kg oral
  Fecal Output (# pellets) cpd: 3.7 pellets
[2]; [3]
  response vs control in vivo at 30 mg/kg: 138%
[2]; [4]
  response vs control in vivo at 30 mg/kg: 35.4%

## Cc1cc(O)cc(C)c1C[C@H](N)C(=O)N(C)Cc1nc(-c2ccccc2)c[nH]1 [Cpd 199]
[1]
  EC50: 217 nM
[2]; [6]
  response vs control in vivo at 10 mg/kg: 86.7%

## CCN(C(=O)[C@@H](N)Cc1ccc(O)cc1)[C@H](C)c1nc(-c2ccccc2)c[nH]1 [Cpd 214]
[1]
  EC50: 26000 nM

## Cc1cc(C(N)=O)cc(C)c1C[C@H](N)C(=O)N(Cc1ccc(C(=O)O)o1)[C@@H](C)c1nc(-c2ccccc2)c[nH]1 [Cpd 256]
Male CD-1 mice
  response vs control in vivo at 30 mg: 89.7%

Reference: patent US10213415B2, “Compounds as opioid receptor modulators” (JANSSEN PHARMACEUTICA NV, priority 2004, dated 2019)
